The source of these data is PMC8881610 (Nature Communications, 2022).

In general, Emax refers to the greatest response seen or fitted, relative to the assay's reference.

For experiment [1], the target named is GLP-1R (Homo sapiens, UniProt P43220, K202A). The experiment is described as follows: cAMP accumulation assay, GLP-1R WT, mutant or modified constructs. The experiment is classed as cell-based. Set-up: Flag; expressed in transfected cells; host or cells: HEK293T. The settings on record: GLP-1R K202A, HEK293T. In a few lines: (§1)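 HEK293T cells transiently expressing wild-type, mutant or modified human GLP-1R (HA signal peptide constructs) were used. Cells were stimulated with peptide agonists for 40 min at room temperature in HBSS with 0.5 mM IBMX and 0.1% BSA or casein. cAMP was quantified by LANCE Ultra TR-FRET (620/650 nm).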
Chain of GLP-1R (Homo sapiens, UniProt P43220, K202A) (P43220 24-463 K202A): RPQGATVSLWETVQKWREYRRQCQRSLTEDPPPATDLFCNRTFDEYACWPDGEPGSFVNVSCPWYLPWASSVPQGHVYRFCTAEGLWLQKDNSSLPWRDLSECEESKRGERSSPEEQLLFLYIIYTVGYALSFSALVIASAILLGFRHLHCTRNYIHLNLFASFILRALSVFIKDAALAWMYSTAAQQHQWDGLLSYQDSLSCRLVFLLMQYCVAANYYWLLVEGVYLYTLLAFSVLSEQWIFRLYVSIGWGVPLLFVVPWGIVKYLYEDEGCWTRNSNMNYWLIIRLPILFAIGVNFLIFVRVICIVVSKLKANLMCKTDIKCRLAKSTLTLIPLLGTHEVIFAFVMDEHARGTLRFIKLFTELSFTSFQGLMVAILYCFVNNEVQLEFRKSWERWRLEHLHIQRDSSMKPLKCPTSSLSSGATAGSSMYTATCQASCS
Background: Cyclic AMP is a second messenger, typically raised through Gs and lowered through Gi signalling.

In experiment [2] the target is GLP-1R (Homo sapiens, UniProt P43220, W91A). The description is as above. Format: cell-based. Set-up: Flag; expressed in transfected cells; host or cells: HEK293T. The settings on record: GLP-1R W91A, HEK293T. In a few lines: as §1
Chain of GLP-1R (Homo sapiens, UniProt P43220, W91A) (P43220 24-463 W91A): as the sequence (P43220 24-463 K202A) above, with W68A, A179K counted along it
Experiment [3] addresses GLP-1R (Homo sapiens, UniProt P43220, Y205A). The experiment is described as above. The experiment is classed as cell-based. The conditions noted are these: GLP-1R Y205A, HEK293T. Set-up: Flag; expressed in transfected cells; host or cells: HEK293T. In a few lines:
as §1

Experiment [4] concerns the target GCGR (Homo sapiens, UniProt P47871, D195A). The experiment is described as follows: Whole-cell binding assay, competition with 125I-GCG. Set-up: V5 (C); 6×His (C); expressed in transfected cells; host or cells: CHO-K1. The conditions noted are these: GCGR D195A; CHO-K1; read-out: binding pIC50 (converted). In a few lines:
(§2)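 CHO-K1 cells transiently transfected with WT or mutant receptor constructs, washed in F-12 with 0.1% BSA or casein/33 mM HEPES and incubated 2 h at 37 °C. Bound radioactivity counted after Triton lysis; data normalized to WT and fitted to a three-parameter logistic equation.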

Experiment [5] deals with GCGR (Homo sapiens, UniProt P47871, D195A/Q142A/R199A). The experiment is described as above. Set-up: V5 (C); 6×His (C); expressed in transfected cells; host or cells: CHO-K1. The conditions noted are these: GCGR Q142A/D195A/R199A, CHO-K1. In a few lines: as §2
Chain of GCGR (Homo sapiens, UniProt P47871, D195A/Q142A/R199A) (P47871 26-477 Q142A/D195A/R199A): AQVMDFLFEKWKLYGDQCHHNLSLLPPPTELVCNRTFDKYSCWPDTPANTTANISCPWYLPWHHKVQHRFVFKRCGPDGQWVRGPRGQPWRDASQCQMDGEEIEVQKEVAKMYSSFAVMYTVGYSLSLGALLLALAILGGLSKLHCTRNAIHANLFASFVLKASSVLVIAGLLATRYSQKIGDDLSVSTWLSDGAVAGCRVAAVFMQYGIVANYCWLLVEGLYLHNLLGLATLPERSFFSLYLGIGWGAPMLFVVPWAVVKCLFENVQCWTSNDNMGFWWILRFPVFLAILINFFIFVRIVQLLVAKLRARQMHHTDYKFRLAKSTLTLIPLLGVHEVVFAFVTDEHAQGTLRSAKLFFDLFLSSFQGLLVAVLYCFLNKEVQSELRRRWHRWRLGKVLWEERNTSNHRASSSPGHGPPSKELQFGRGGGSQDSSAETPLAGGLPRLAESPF
Experiment [6] addresses GCGR (Homo sapiens, UniProt P47871, K205A). Described as above. Set-up: V5 (C); 6×His (C); expressed in transfected cells; host or cells: CHO-K1. The conditions noted are these: GCGR K205A, CHO-K1. In a few lines:
as §2

Experiment [7] addresses GCGR (Homo sapiens, UniProt P47871, Q131A). The experiment is described as above. Set-up: V5 (C); 6×His (C); expressed in transfected cells; host or cells: CHO-K1. The conditions noted are these: GCGR Q131A, CHO-K1. In a few lines:
as §2

In experiment [8] the target is GCGR (Homo sapiens, UniProt P47871, W215A). The description is as above. Set-up: V5 (C); 6×His (C); expressed in transfected cells; host or cells: CHO-K1. The conditions noted are these: GCGR W215A, CHO-K1. In a few lines:
as §2

The target of experiment [9] is GCGR (Homo sapiens, UniProt P47871, Y138A). The experiment is described as above. Set-up: V5 (C); 6×His (C); expressed in transfected cells; host or cells: CHO-K1. The conditions noted are these: GCGR Y138A, CHO-K1. In a few lines:
as §2

The mark [10] stands for this setting: read-out: cAMP pEC50 (converted).
[11] abbreviates: read-out: binding pIC50 (converted).

Each structure is given as a SMILES string.

Chain of GCGR (Homo sapiens, UniProt P47871, K205A) (P47871 26-477 K205A): as the sequence (P47871 26-477 Q142A/D195A/R199A) above, with A117Q, A170D, A174R, K180A counted along it
Chain of GCGR (Homo sapiens, UniProt P47871, Y138A) (P47871 26-477 Y138A): as the sequence (P47871 26-477 Q142A/D195A/R199A) above, with Y113A, A117Q, A170D, A174R counted along it
Chain of GCGR (Homo sapiens, UniProt P47871, W215A) (P47871 26-477 W215A): as the sequence (P47871 26-477 Q142A/D195A/R199A) above, with A117Q, A170D, A174R, W190A counted along it
Chain of GLP-1R (Homo sapiens, UniProt P43220, Y205A) (P43220 24-463 Y205A): as the sequence (P43220 24-463 K202A) above, with A179K, Y182A counted along it
Chain of GCGR (Homo sapiens, UniProt P47871, Q131A) (P47871 26-477 Q131A): as the sequence (P47871 26-477 Q142A/D195A/R199A) above, with Q106A, A117Q, A170D, A174R counted along it
Chain of GCGR (Homo sapiens, UniProt P47871, D195A) (P47871 26-477 D195A): as the sequence (P47871 26-477 Q142A/D195A/R199A) above, with A117Q, A174R counted along it

In the case of `CCCCCCCCCCCCCCCC(=O)N[C@@H](CCC(=O)NCCCC[C@H](NC(=O)[C@H](CC(=O)O)NC(=O)[C@H](CO)NC(=O)[C@@H](NC(=O)[C@H](Cc1ccccc1)NC(=O)[C@@H](NC(=O)CNC(=O)[C@H](CCC(N)=O)NC(=O)C(C)(C)NC(=O)[C@@H](N)Cc1c[nH]cn1)[C@@H](C)O)[C@@H](C)O)C(=O)N[C@@H](CO)C(=O)N[C@@H](CCCCN)C(=O)N[C@@H](Cc1ccc(O)cc1)C(=O)N[C@@H](CC(C)C)C(=O)N[C@@H](CC(=O)O)C(=O)N[C@@H](CCC(=O)O)C(=O)N[C@@H](CCCNC(=N)N)C(=O)N[C@@H](C)C(=O)N[C@@H](C)C(=O)N[C@@H](CCC(N)=O)C(=O)N[C@@H](CC(=O)O)C(=O)N[C@@H](Cc1ccccc1)C(=O)N[C@H](C(=O)N[C@@H](CCC(N)=O)C(=O)N[C@@H](Cc1c[nH]c2ccccc12)C(=O)N[C@@H](CC(C)C)C(=O)N[C@@H](CC(C)C)C(=O)N[C@@H](CC(=O)O)C(=O)NCC(=O)NCC(=O)N1CCC[C@H]1C(=O)N[C@@H](CO)C(=O)N[C@@H](CO)C(=O)NCC(=O)N[C@@H](C)C(=O)N1CCC[C@H]1C(=O)N1CCC[C@H]1C(=O)N1CCC[C@H]1C(=O)N[C@@H](CO)C(N)=O)C(C)C)C(=O)O` [Peptide 20], the EC50 was 0.00257 nM in [1] (setting [10]), 0.00603 nM in [2] (setting [10]) and 0.00851 nM in experiment [3] (setting [10]). The Emax in experiment [1] (HEK-293T) came out at 100 ± 1.97%; in [2] (HEK-293T) it was 100 ± 1.33%; in experiment [3] (HEK-293T), 101 ± 1.08%. The IC50 was 25.7 nM in [4]; 30.2 nM in experiment [5] (setting [11]); 182 nM in [6] (setting [11]); 69.2 nM in experiment [7] (setting [11]); 145 nM in experiment [8] (setting [11]); 1.15 nM in experiment [9] (setting [11]). Besides, the “binding Span” value stood at 24.37 ± 1.80 % WT in [5]; 130.88 ± 9.06 % WT in experiment [6]; 32.87 ± 3.34 % WT in experiment [7]; 7.72 ± 2.74 % WT in experiment [8]; 2.08 ± 2.48 % WT in experiment [9].
